# Assays:
# [1] = tested on: GBM12 patient-derived human glioblastoma cells; test: Cell death, trypan blue, GBM12; details: 5-50 μM, 96 h
# Method: (§1) The percentage of cell death was calculated at 96-hour time point for all experimental conditions.
# [2] = tested on: U-87MG human glioblastoma cell line; test: Cell death, trypan blue, U-87MG; details: 5-50 μM, 96 h
# Method: as §1
# [3] = mouse, in vivo; cited from earlier work
# [4] = tested on: mitochondrial respiration and glycolysis in LN-229 human glioblastoma cells; test: Metabolic parameters, Extracellular Flux Analyzer (OCR/ECAR); type: cell-based; details: 25 μM, LN229
# Method: Metabolic responses of LN-229 human glioblastoma cells were evaluated with Extracellular Flux Analyzer XF24 (Seahorse Biosciences, North Billerica, Mass.). Prior each assay the cells were plated at 4×10^4 cells/well in 24-well plates in growth supporting media. At the time of measurement, growth media were replaced with serum-free XF medium (Seahorse) in cartridges equipped with oxygen-sensitive and pH-sensitive fluorescent probes. The oxygen consumption rate (OCR; indicative of mitochondrial respiration) and acidification rate (ECAR; indicative of glycolysis) were evaluated after injecting the following metabolic toxins: oligomycin, FCCP; rotenone; and antimycin A. Immediate metabolic effects were determined by comparing OCR and ECAR values in cells pre-incubated with DMSO (vehicle), or with PP1 and FF, all used at 25 μM. A: Representative experiment in which real OCR (pmol/min) and ECAR (mpH/min) values are shown. Other relevant metabolic parameters calculated from this experiment include ATP production, Spare Respiratory Capacity, basal OCR levels and proton leak. B: Average OCR and ECAR data (% change over basal OCR and ECAR values) from three independent experiments repeated 5 times (n=15).
# Evaluation of metabolic parameters—Metabolic responses of human glioblastoma cells were evaluated with Extracellular Flux Analyzer XFe24 (Agilent Technologies). […]
structure (smiles),measurement,setting,value
"CN(CCO)C(=O)C(C)(C)Oc1ccc(C(=O)c2ccc(Cl)cc2)cc1 [PP1, 2-[4-(4-chlorobenzoyl)phenoxy]-N-(2-hydroxyethyl)-N,2-dimethylpropanamide]",in vitro cytotoxicity,[1],high in vitro cytotoxicity
same,in vitro cytotoxicity,[2],high in vitro cytotoxicity
same,"brain penetration, concentration",[3],5 µM
same,estimated log BB (from experiment),[3],zero
same,extracellular acidification rate (ECAR),[4],corresponding increases in ECAR
same,oxygen consumption rate (OCR),[4],dramatic decrease of OCR values
